Tests used:
[1] = target: Ba/F3_KRAS^G12D cells (Homo sapiens, UniProt P01116, G12D, cells depend on it); assay: Ba/F3 KRAS G12D cell proliferation assay (CellTiter-Glo); format: cell-based; settings: treated for 3 days, cell-titer Glo, cell growth inhibition, read-out: BaF3_KRAS^G12D IC50
Outline: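 KRAS G12D-transduced Ba/F3 cells, IL3-independent and puromycin-selected, seeded at 5×10^3/well overnight, then given serially diluted compound for 3 days. Proliferation read by CellTiter-Glo luminescence. IC50 from a four-parameter logistic fit with Hill slope.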

[2] = target: recombinant human KRAS^G12D protein (Homo sapiens, UniProt P01116, G12D); assay: Temperature-dependent Fluorescence (TdF) KRAS G12D protein binding assay; settings: 6 μM KRAS^G12D protein, 10 μM compound, Sypro Orange; Kd calculated from the fluorescent shift
Chain of recombinant human KRAS^G12D protein (P01116 1-188 isoform P01116-2 G12D): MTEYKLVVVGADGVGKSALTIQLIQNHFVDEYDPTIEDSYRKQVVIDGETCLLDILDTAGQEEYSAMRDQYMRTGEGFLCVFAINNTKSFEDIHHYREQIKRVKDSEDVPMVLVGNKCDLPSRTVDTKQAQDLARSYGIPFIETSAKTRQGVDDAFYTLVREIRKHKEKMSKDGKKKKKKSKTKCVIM
Outline: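 Thermal-shift binding with Sypro Orange: 6 μM KRAS^G12D and 10 μM compound in 25 mM HEPES pH 7.5, 150 mM NaCl, 10 mM MgCl2, 1% DMSO. Binding read as ΔTm with versus without compound; Kd calculated from the degree of fluorescence shift.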

Chain of Ba/F3_KRAS^G12D cells (P01116 whole entry G12D): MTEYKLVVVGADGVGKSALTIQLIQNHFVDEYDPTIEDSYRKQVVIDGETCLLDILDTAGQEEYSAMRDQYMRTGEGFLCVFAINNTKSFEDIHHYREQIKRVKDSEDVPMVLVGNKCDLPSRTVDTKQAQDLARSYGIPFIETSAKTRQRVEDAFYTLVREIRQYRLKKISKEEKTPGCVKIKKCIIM

GI50 [1]: < 500 nM
Kd [2]: < 500 nM
SMILES: C#Cc1c(F)ccc2cc(O)cc(-c3cc(Cl)c4c(N5CC6CCC(C5)N6)nc(OC[C@@]56CCCN5C[C@H](F)C6)nc4c3F)c12 [Compound 168]
